Read-outs that look alike come from different tables or passages of the source.
Columns and labels:
T-47D^D538G cells = assay: Cell viability assay; assay type: cell-based, human; details: Homo sapiens, 72 h, read-out: T-47D^D538G IC50
T-47D cells = assay: Cell viability assay; assay type: cell-based, human; details: Homo sapiens, T47D, 72 h, read-out: T-47D IC50
T-47D^Y537S cells = assay: Cell viability assay; assay type: cell-based, human; details: Homo sapiens, 72 h, read-out: T-47D^Y537S IC50
human ERβ LBD = human ERβ LBD (Homo sapiens, UniProt Q92731); assay: Competitive fluorescence polarization binding assay, ERβ; details: for RBA ERβ: IC50 estradiol/IC50 compound × 100, estradiol = 100%
human ERα LBD = target: T1, human ERα LBD (Homo sapiens, UniProt P03372); assay: Competitive fluorescence polarization binding assay, ERα; details: for RBA ERα: IC50 estradiol/IC50 compound × 100, estradiol = 100%; for α/β ratio: ratio of RBA ERα to RBA ERβ
T1 sequence (P03372 311-547 limits assumed): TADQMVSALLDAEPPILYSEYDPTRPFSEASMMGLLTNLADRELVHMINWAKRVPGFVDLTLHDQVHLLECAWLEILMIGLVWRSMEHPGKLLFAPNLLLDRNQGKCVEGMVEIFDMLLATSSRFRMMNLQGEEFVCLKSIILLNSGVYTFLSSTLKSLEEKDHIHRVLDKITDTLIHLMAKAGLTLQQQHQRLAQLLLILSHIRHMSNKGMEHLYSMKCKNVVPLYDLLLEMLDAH

MCF-7 cells = assay: Cell viability assay; assay type: cell-based, human; details: Homo sapiens, MCF7, 72 h, read-out: MCF-7 IC50

human ERβ LBD, sequence (Q92731 264-498 limits assumed): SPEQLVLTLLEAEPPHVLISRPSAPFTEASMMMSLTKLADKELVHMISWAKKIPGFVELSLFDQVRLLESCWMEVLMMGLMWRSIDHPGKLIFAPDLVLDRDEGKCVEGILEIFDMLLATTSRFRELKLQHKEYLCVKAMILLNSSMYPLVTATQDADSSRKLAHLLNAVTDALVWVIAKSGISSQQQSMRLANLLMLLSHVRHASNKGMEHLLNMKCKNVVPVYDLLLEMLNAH

| Structure (SMILES) | IC50 (T-47D^D538G cells) [µM] | IC50 (T-47D cells) [µM] | IC50 (T-47D^Y537S cells) [µM] | RBA ERβ (human ERβ LBD) [%] | RBA ERα (human ERα LBD) [%] | α/β ratio (human ERα LBD) | IC50 (MCF-7 cells) [µM] | Ki (human ERβ LBD) [µM] | Ki (human ERα LBD) [µM] | Ki (human ERβ LBD; read-out: Ki ERβ) [µM] | Ki (human ERα LBD; read-out: Ki ERα) [µM] |
| --- | --- | --- | --- | --- | --- | --- | --- | --- | --- | --- | --- |
| C=CC(=O)Nc1ccc(OS(=O)(=O)C2CC3OC2C(c2ccc(O)cc2)=C3c2ccc(O)cc2)cc1 (stereo not shown) [Compound 26a, 4-Acrylamidophenyl-5,6-bis(4-hydroxyphenyl)-7-oxabicyclo[2.2.1]hept-5-ene-2-sulfonate] | > 31 | > 31 | 27.2 ± 0.73 | 3.86 ± 0.34 | 8.04 ± 0.87 | 2.08 | 7.72 ± 0.64 |  |  |  |  |
| C/C=C/C(=O)Nc1ccc(OS(=O)(=O)C2CC3OC2C(c2ccc(O)cc2)=C3c2ccc(O)cc2)cc1 (stereo not shown) [Compound 26b, 4-((E)-But-2-enamido)phenyl-5,6-bis(4-hydroxyphenyl)-7-oxabicyclo[2.2.1]hept-5-ene-2-sulfonate] | > 31 | 19.4 ± 0.54 | > 31 | 0.40 ± 0.05 | 4.77 ± 0.16 | 11.93 | 9.18 ± 0.95 | 0.0167 | 0.00058 |  |  |
| CC(C)=CC(=O)Nc1ccc(OS(=O)(=O)C2CC3OC2C(c2ccc(O)cc2)=C3c2ccc(O)cc2)cc1 (stereo not shown) [Compound 26c, 4-(3-Methylbut-2-enamido)phenyl-5,6-bis(4-hydroxyphenyl)-7-oxabicyclo[2.2.1]hept-5-ene-2-sulfonate] | 8.75 ± 0.25 | 15.8 ± 0.68 | 12 ± 0.4 | 1.31 ± 0.66 | 3.28 ± 0.17 | 2.50 | 3.16 ± 0.63 | 0.00509 | 0.00084 |  |  |
| C#CC(=O)Nc1ccc(OS(=O)(=O)C2CC3OC2C(c2ccc(O)cc2)=C3c2ccc(O)cc2)cc1 (stereo not shown) [Compound 26d, 4-Propiolamidophenyl-5,6-bis(4-hydroxyphenyl)-7-oxabicyclo[2.2.1]hept-5-ene-2-sulfonate] | 9.33 ± 0.46 | 6.91 ± 0.29 | 8.93 ± 0.25 | 0.49 ± 0.04 | 0.85 ± 0.08 | 1.73 | 1.79 ± 0.4 | 0.0136 | 0.00325 |  |  |
| O=C(CCl)Nc1ccc(OS(=O)(=O)C2CC3OC2C(c2ccc(O)cc2)=C3c2ccc(O)cc2)cc1 (stereo not shown) [Compound 26e, 4-(2-Chloroacetamido)phenyl-5,6-bis(4-hydroxyphenyl)-7-oxabicyclo[2.2.1]hept-5-ene-2-sulfonate] | 7.86 ± 0.37 | 8.2 ± 0.36 | 8.85 ± 0.61 | 0.55 ± 0.02 | 1.02 ± 0.13 | 1.85 | 3.42 ± 0.32 | 0.0121 | 0.00271 |  |  |
| O=C(CBr)Nc1ccc(OS(=O)(=O)C2CC3OC2C(c2ccc(O)cc2)=C3c2ccc(O)cc2)cc1 (stereo not shown) [Compound 26f, 4-(2-Bromoacetamido)phenyl-5,6-bis(4-hydroxyphenyl)-7-oxabicyclo[2.2.1]hept-5-ene-2-sulfonate] | > 31 | 9.11 ± 0.21 | > 31 | 3.86 ± 0.34 |  | 2.08 | 0.5 ± 0.3 |  |  |  |  |
| C=CC(=O)Nc1ccc(C2=C(c3ccc(O)cc3)C3OC2CC3S(=O)(=O)Oc2ccccc2)cc1 (stereo not shown) [Compound 28a, Phenyl-5-(4-acrylamidophenyl)-6-(4-hydroxyphenyl)-7-oxabicyclo[2.2.1]hept-5-ene-2-sulfonate] | > 31 | > 31 | > 31 | 1.19 ± 0.27 | 18.55 ± 0.34 | 15.59 | 5.07 ± 0.71 | 0.00561 | 0.00015 |  |  |
| C/C=C/C(=O)Nc1ccc(C2=C(c3ccc(O)cc3)C3OC2CC3S(=O)(=O)Oc2ccccc2)cc1 (stereo not shown) [Compound 28b, Phenyl-5-(4-((E)-but-2-enamido)phenyl)-6-(4-hydroxyphenyl)-7-oxabicyclo[2.2.1]hept-5-ene-2-sulfonate] | 17.1 ± 0.65 | 25.6 ± 0.98 | > 31 | 10.40 ± 0.23 | 14.08 ± 0.25 | 1.35 | 0.44 ± 0.11 | 0.00064 | 0.0002 |  |  |
| CC(C)=CC(=O)Nc1ccc(C2=C(c3ccc(O)cc3)C3OC2CC3S(=O)(=O)Oc2ccccc2)cc1 (stereo not shown) [Compound 28c, Phenyl-6-(4-hydroxyphenyl)-5-(4-(3-methylbut-2-enamido)phenyl)-7-oxabicyclo[2.2.1]hept-5-ene-2-sulfonate] | 17.6 ± 0.89 | 24.9 ± 0.77 | > 31 | 0.90 ± 0.25 | 22.13 ± 0.92 | 24.59 | 0.35 ± 0.02 | 0.00741 | 0.00012 |  |  |
| O=C(CCl)Nc1ccc(C2=C(c3ccc(O)cc3)C3CC(S(=O)(=O)Oc4ccccc4)C2O3)cc1 (stereo not shown) [Compound 28d, Phenyl-6-(4-(2-chloroacetamido)phenyl)-5-(4-hydroxyphenyl)-7-oxabicyclo[2.2.1]hept-5-ene-2-sulfonate] | > 31 | 13.3 ± 0.77 | > 31 | 0.92 ± 0.17 | 3.46 ± 0.02 | 3.76 | 0.66 ± 0.12 | 0.00725 | 0.0008 |  |  |
| O=C(CBr)Nc1ccc(C2=C(c3ccc(O)cc3)C3OC2CC3S(=O)(=O)Oc2ccccc2)cc1 (stereo not shown) [Compound 28e, Phenyl-5-(4-(2-bromoacetamido)phenyl)-6-(4-hydroxyphenyl)-7-oxabicyclo[2.2.1]hept-5-ene-2-sulfonate] | > 31 | 19.7 ± 0.32 | > 31 | 0.36 ± 0.03 | 9.44 ± 0.40 | 26.22 | 1.1 ± 0.14 | 0.0185 | 0.00029 |  |  |
| CC(C)=CC(=O)Nc1ccc(C2=C(c3ccc(O)cc3)C3CC(S(=O)(=O)Oc4ccc(O)cc4)C2O3)cc1 (stereo not shown) [Compound 28f, 4-Hydroxyphenyl-5-(4-hydroxyphenyl)-6-(4-(3-methylbut-2-enamido)phenyl)-7-oxabicyclo[2.2.1]hept-5-ene-2-sulfonate] | > 31 | 8.53 ± 0.12 | 9.11 ± 0.35 | 3.29 ± 0.25 | 7.93 ± 0.34 | 2.41 | 0.93 ± 0.19 | 0.00203 | 0.00035 |  |  |
| C=CC(=O)Nc1ccc(C2=C(c3ccc(O)cc3)C3OC2CC3S(=O)(=O)N(CC(F)(F)F)c2ccc(O)cc2)cc1 (stereo not shown) [Compound 29a, N-(4-(3-(4-Hydroxyphenyl)-5-(N-(4-hydroxyphenyl)-N-(2,2,2-trifluoroethyl)sulfamoyl)-7-oxabicyclo[2.2.1]hept-2-en-2-yl)phenyl)acrylamide] | 5.55 ± 0.24 | 2.85 ± 0.29 | > 31 | 6.74 ± 0.21 | 20.03 ± 0.25 | 2.97 | 0.18 ± 0.05 |  |  | 0.00099 | 0.00014 |
| C/C=C/C(=O)Nc1ccc(C2=C(c3ccc(O)cc3)C3OC2CC3S(=O)(=O)N(CC(F)(F)F)c2ccc(O)cc2)cc1 (stereo not shown) [Compound 29b, (E)-N-(4-(3-(4-Hydroxyphenyl)-5-(N-(4-hydroxyphenyl)-N-(2,2,2-trifluoroethyl)sulfamoyl)-7-oxabicyclo[2.2.1]hept-2-en-2-yl)phenyl)but-2-enamide] | > 31 | 5.12 ± 0.33 | > 31 | 0.63 ± 0.14 | 19.82 ± 0.19 | 31.46 | 0.36 ± 0.04 | 0.0106 | 0.00014 |  |  |

From paper PMC10692362 (Acta Pharmaceutica Sinica. B, 2023)
